Measured values taken from the NIST ThermoML archive (doi:10.1021/je100484n).
Numbers after ± are expanded uncertainties.

Assay: refractive index (Na D-line) (dimensionless); xn = mol fraction of the nth substance listed
Settings: 101 kPa, Liquid

CC(C)(C)O [2-methylpropan-2-ol] + CCCCCCC
refractive index
Settings	303.15 K	308.15 K	313.15 K	318.15 K	323.15 K
x1 = 0.1006	1.3814 ± 0.00063	1.37865 ± 0.00063	1.37591 ± 0.00063	1.37312 ± 0.00063	1.37031 ± 0.00063
x1 = 0.1502	1.38092 ± 0.00063	1.37816 ± 0.00063	1.37539 ± 0.00063	1.37258 ± 0.00063	1.36973 ± 0.00063
x1 = 0.2	1.38051 ± 0.00063	1.37775 ± 0.00063	1.37496 ± 0.00063	1.37213 ± 0.00063	1.36928 ± 0.00063
x1 = 0.3	1.37984 ± 0.00063	1.37711 ± 0.00063	1.37431 ± 0.00063	1.37149 ± 0.00063	1.36865 ± 0.00063
x1 = 0.4	1.37936 ± 0.00063	1.37667 ± 0.00063	1.37387 ± 0.00063	1.37108 ± 0.00063	1.36828 ± 0.00063
x1 = 0.4998	1.37907 ± 0.00063	1.37641 ± 0.00063	1.3736 ± 0.00063	1.37085 ± 0.00063	1.36807 ± 0.00063
x1 = 0.6	1.37899 ± 0.00063	1.37633 ± 0.00063	1.3735 ± 0.00063	1.37079 ± 0.00063	1.36801 ± 0.00063
x1 = 0.7	1.37917 ± 0.00062	1.37649 ± 0.00062	1.37364 ± 0.00062	1.37094 ± 0.00062	1.36814 ± 0.00062
x1 = 0.7998	1.37969 ± 0.00062	1.37697 ± 0.00062	1.37411 ± 0.00062	1.37139 ± 0.00062	1.36855 ± 0.00062
x1 = 0.8479	1.38009 ± 0.00062	1.37735 ± 0.00062	1.37449 ± 0.00062	1.37175 ± 0.00062	1.36889 ± 0.00062
x1 = 0.8998	1.38066 ± 0.00062	1.37791 ± 0.00062	1.37505 ± 0.00062	1.37229 ± 0.00062	1.36942 ± 0.00062
x1 = 0.9499	1.38136 ± 0.00062	1.3786 ± 0.00062	1.37577 ± 0.00062	1.37297 ± 0.00062	1.37009 ± 0.00062
x1 = 1	1.38222 ± 0.00062	1.37947 ± 0.00062	1.37667 ± 0.00062	1.37384 ± 0.00062	1.37097 ± 0.00062
